# Measurements taken from patent publication US20260206745A1, “DOUBLE ENCAPSULATED NANOCOMPOSITE FOR STAGED DELIVERY OF ACTIVE INGREDIENT(S), AND A METHOD OF PRODUCING THEREOF” (COUNCIL OF SCIENTIFIC AND INDUSTRIAL RESEARCH, priority 2022, published 2026).
# Legend:
# [1] = In vitro atrazine release from nanoformulations (dialysis); format: physicochemical; conditions: after 94 hours, DI water, dialysis 12 kDa
# Experimental: B) In vitro atrazine release from nanoformulations: A dialysis tubing (MWCO 12 kDa, Sigma-Aldrich, St. Louis, USA) was taken with nfATZ (2 mg), where the total amount of ATZ loaded was 200 μg. In another dialysis tubing, 200 μg of ATZ (bulk form) dispersed in 2 ml of distilled water (DW) with 0.1% w/v sodium azide was taken. These dialysis bags were kept in 18 mL of DW containing sodium azide, and the release studies were done at 37° C. in a shaker bath (SW23, Julabo, Seelbach, Germany) at 50 rpm. At regular intervals, 1 mL of DW was withdrawn and replaced with 1 mL of fresh DW to maintain the sink conditions. The withdrawn DW was analyzed for the amount of ATZ released using a UV-visible spectrophotometer at λmax of 222 nm. […] After 94 hours of release studies, 60% of ATZ was released in the case of plain ATZ, while 22% of ATZ was released from the nfATZ. […] From this observation, it is noted that the another […] of release from the nano-formulation can extend up to 30 days. From these studies, inventors concluded that the nanoformulations is the best choice to control the weeds for an extended period, which can be manipulated as desired by changing concentration of EC and ATZ.
# [2] = Thermal gravimetric analysis (TGA); format: physicochemical; conditions: TGA under N2, 10° C. min^−1
# Excerpt: A) Characterization: The morphology and size distribution of the nf and nfATZ were observed using a field emission scanning electron microscope (FE-SEM; Nova NanoSEM 450, FEI, Hillsboro, USA) and a high-resolution transmission electron microscope (HR-TEM; Tecnai TF20, 200 kV FEG, FEI, Hillsboro, USA). The ζ-potential and particle size distribution of nf and nfATZ were estimated using a PALS zeta potential analyzer (Brookhaven Instruments, Holtsville, USA). The material structural analysis was determined using a Fourier transform infrared spectrometer (FTIR; PerkinElmer, Waltham, USA) and X-ray diffractometer (XRD; PANalytical X'Pert PRO, Malvern Panalytical, Malvern, UK). The interaction between ATZ and EC was analyzed using differential scanning calorimetry (DSC). […]
# The nf depicts a shift in Tg from 121° C. to 131º° C. […] The nfATZ recorded a Tg at 125° C.; a shift in the Tg from 131° C. […] Two-stage decomposition temperatures were recorded for pristine EC, 50-95° C., due to loss of moisture (weight loss, 2.9%) and 150-380° C. due to fragmentation of chemical bonds (weight loss, 85%). […] Further, it is observed that nfATZ recorded a broad first derivative peak for the weight loss, which may be due to the merging of two first derivative peaks, one for ATZ and the other for EC.
smiles,measurement,setting,value
"CCNc1nc(Cl)nc(NC(C)C)n1 [plain ATZ, Atrazine]",ATZ released,[1],60%
same,maximum degradation temperature,[2],230 °C
